This note sets out measurements from patent EP4095134A1, “POLYCYCLIC COMPOUNDS FOR THE TREATMENT OF NEUROLOGICAL INDICATIONS” (UCL Business Ltd, priority 2021, dated 2022).

The target of one experiment is T1, P2Y1 receptor (Homo sapiens, UniProt P47900).
T1 construct: expressed in transfected cells
T1 sequence (P47900 whole entry): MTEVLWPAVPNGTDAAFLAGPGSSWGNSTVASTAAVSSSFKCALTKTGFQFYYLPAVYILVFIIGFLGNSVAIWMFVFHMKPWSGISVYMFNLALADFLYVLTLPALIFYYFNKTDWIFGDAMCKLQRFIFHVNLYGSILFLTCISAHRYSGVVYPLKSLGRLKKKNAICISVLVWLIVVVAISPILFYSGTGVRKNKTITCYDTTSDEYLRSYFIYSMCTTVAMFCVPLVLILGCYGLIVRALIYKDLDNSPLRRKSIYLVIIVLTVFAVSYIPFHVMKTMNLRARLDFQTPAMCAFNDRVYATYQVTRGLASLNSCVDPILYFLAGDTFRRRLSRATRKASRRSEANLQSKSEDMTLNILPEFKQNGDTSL
The experiment in a line: P2Y1 IP1 accumulation HTRF assay, antagonism of agonist MRS2365 in stably transfected cells. It is filed as cell-based. As to conditions: racemic; 5nM MRS2365; values rounded to nearest whole number; N >= 4. Here is the method:
IC50 values were determined using a cell based assay in stably transfected cells overexpressing the P2Y1 receptor. The assay system is a […] (HTRF) assay measuring accumulation of the intracellular messenger inositol monophosphate (IP1), generated intracellularly following activation of P2Y1. Activity of test compounds was generated by measuring antagonism of the increase in IP1 generated by addition of a selective P2Y1 agonist, MRS2365.
P2Y1 overexpressing cells were maintained in T175 flasks. The day before the assay, these cells were split and 20µl cell suspension transferred to each well of white 384-well assay plates at a cell density of 0.5x10^6 cells/mL. Plates were pulse centrifuged, then incubated overnight at 37°C / 5% CO2 prior to assay.
On day of assay, medium was removed from cells and replaced with stimulation buffer. Compounds were prepared in 100% DMSO for addition to cells using the Tecan D300e digital dispenser; compounds were prepared in cassette heads and added directly to wells in the required concentration range, to give a 10-point concentration response curve from 10µM with semi-log dilutions and a final DMSO concentration of 0.1%. Positive control antagonist curves with standard compounds were included on each plate. Plates were incubated with antagonists for 1 hour prior to addition of 5nM of the agonist MRS2365, dispensed using a Bravo liquid handler. Following agonist addition, plates were incubated for 60 minutes prior to assay. Both incubations were carried out at 37°C / 5% CO2.
For the assay, IP1 accumulation was quantified using the IPOne kit according to manufacturer's instructions. In short, a standard curve was prepared for IP 1 quantification, and cells lysed using kit lysis buffer. Assay reagents were added to the lysates, and incubated for 1 hour at room temperature without spinning or shaking. Plates were analysed on a BMG Pherastar plate reader, and IP1 signal generated in cells interpolated from the standard curve.
For all reported results, N is greater than or equal to 4. An individual N refers to one assay run with a single weighing of compound. A minimum of two assay runs were performed for each of two independent weighings of compound. Results (racemic)
A general note: TR-FRET usually uses a lanthanide donor and a delayed reading to cut background.
Turning to `O=C(Nc1ccccc1)Nc1cccnc1Oc1ccccc1C1(C(F)(F)F)CCO1` (racemic) [S60, 1-phenyl-3-(2-(2-(2-(trifluoromethyl)oxetan-2-yl)phenoxy)pyridin-3-yl)urea], the IC50 is 735 nM.

Turning to `Cc1ccc(NC(=O)NC2CC3(CCC3)C2)c(Oc2ccc(F)cc2C2(C(F)(F)F)CCO2)n1` (racemic) [S63, 1-(2-(4-fluoro-2-(2-(trifluoromethyl)oxetan-2-yl)phenoxy)-6-methylpyridin-3-yl)-3-(spiro[3.3]heptan-2-yl)urea], the IC50 amounted to 844 nM.

As to `[2H]C([2H])([2H])Oc1ccc(NC(=O)Nc2cccnc2Oc2ccccc2C2(C(F)(F)F)CCO2)c(F)c1` (racemic) [S52, 1-(2-fluoro-4-(methoxy-d3)phenyl)-3-(2-(2-(2-(trifluoromethyl)oxetan-2-yl)phenoxy)pyridin-3-yl)urea], the IC50 worked out at 500 nM.

The molecule `O=C(Nc1ccc(OC(F)(F)F)cc1)Nc1cccnc1Oc1ccccc1C1(C(F)(F)F)CCN1CC1CC1` (racemic) [S116] returned an IC50 of 45 nM.

For the molecule `O=C(Nc1ccc(OC(F)(F)F)cn1)Nc1cccnc1Oc1ccccc1C1(C(F)(F)F)CCO1` (racemic) [S50, 1-(5-(trifluoromethoxy)pyridin-2-yl)-3-(2-(2-(2-(trifluoromethyl)oxetan-2-yl)phenoxy)pyridin-3-yl)urea], the IC50 was found to be 465 nM.

Consider `COc1ccc(F)c(NC(=O)Nc2ccc(C)nc2Oc2ccccc2C2(C(F)(F)F)CCO2)c1` (racemic) [S44, 1-(2-fluoro-5-methoxyphenyl)-3-(6-methyl-2-(2-(2-(trifluoromethyl)oxetan-2-yl)phenoxy)pyridin-3-yl)urea], for which the IC50 was 348 nM.

The molecule `COc1ccc(F)c(NC(=O)Nc2cccnc2Oc2ccccc2C2(C(F)(F)F)CCO2)c1` (racemic) [S47, 1-(2-fluoro-5-methoxyphenyl)-3-(2-(2-(2-(trifluoromethyl)oxetan-2-yl)phenoxy)pyridin-3-yl)urea] yielded an IC50 of 392 nM.

As for `O=C(Nc1nc2ccccc2[nH]1)Nc1cccnc1Oc1ccccc1C1(C(F)(F)F)CCO1` (racemic) [S84, 1-(1H-benzo[d]imidazol-2-yl)-3-(2-(2-(2-(trifluoromethyl)oxetan-2-yl)phenoxy)pyridin-3-yl)urea], the IC50 turned out to be 4940 nM.

In turn, `COc1ccc(NC(=O)Nc2ccc(C)nc2Oc2ccc(F)cc2C2(C(F)(F)F)CCO2)cn1` (racemic) [S75, 1-(2-(4-fluoro-2-(2-(trifluoromethyl)oxetan-2-yl)phenoxy)-6-methylpyridin-3-yl)-3-(6-methoxypyridin-3-yl)urea] returned an IC50 of 2650 nM.

On to `O=C(Nc1ccc(Cl)cc1F)Nc1ccc(Cl)nc1Oc1ccccc1C1(C(F)(F)F)CCO1` (racemic) [S22, 1-(6-chloro-2-(2-(2-(trifluoromethyl)oxetan-2-yl)phenoxy)pyridin-3-yl)-3-(4-chloro-2-fluorophenyl)urea], for which the IC50 was found to be 141 nM.

Regarding `Cc1ccc(NC(=O)Nc2ccc(OC(F)(F)F)cc2)c(Oc2ccc(F)cc2C2(C(F)(F)F)CCO2)n1` (racemic) [S19, 1-(2-(4-fluoro-2-(2-(trifluoromethyl)oxetan-2-yl)phenoxy)-6-methylpyridin-3-yl)-3-(4-(trifluoromethoxy)phenyl)urea], the IC50 was found to be 120 nM.

Molecule `Cc1ccc(NC(=O)Nc2ccc3c(c2)OC(F)(F)O3)c(Oc2ccc(F)cc2C2(C(F)(F)F)CCO2)n1` (racemic) [S41, 1-(2,2-difluorobenzo[d][1,3]dioxol-5-yl)-3-(2-(4-fluoro-2-(2-(trifluoromethyl)oxetan-2-yl)phenoxy)-6-methylpyridin-3-yl)urea] displayed an IC50 of 287 nM.

The molecule `O=C(Nc1ccccc1)Nc1cccnc1Oc1ccccc1C1(C(F)F)CCO1` (racemic) [S80] yielded an IC50 of 3280 nM.

Turning to `Cc1ncc(NC(=O)Nc2ccc(Cl)cc2)c(Oc2ccccc2C2(C(F)(F)F)CCO2)n1` (racemic) [S69, 1-(4-chlorophenyl)-3-(2-methyl-4-(2-(2-(trifluoromethyl)oxetan-2-yl)phenoxy)pyrimidin-5-yl)urea], the IC50 was 1410 nM.

Consider `Cc1ccc(NC(=O)Nc2ccc(F)cn2)c(Oc2ccc(F)cc2C2(C(F)(F)F)CCO2)n1` (racemic) [S54, 1-(2-(4-fluoro-2-(2-(trifluoromethyl)oxetan-2-yl)phenoxy)-6-methylpyridin-3-yl)-3-(5-fluoropyridin-2-yl)urea], for which the IC50 was 549 nM.

Take `O=C(Nc1ccc(C(F)(F)F)cc1)Nc1cccnc1Oc1ccccc1C1(C(F)(F)F)CCO1` (racemic) [S25, 1-(2-(2-(2-(trifluoromethyl)oxetan-2-yl)phenoxy)pyridin-3-yl)-3-(4-(trifluoromethyl)phenyl)urea]: the IC50 came to 146 nM.

In turn, `Cc1c(Oc2ncccc2NC(=O)Nc2ccc(OC(F)(F)F)cc2)cccc1C1COC1` (racemic) [S91] showed an IC50 of 1370 nM.

As to `CN1CCC1(c1ccccc1Oc1ncccc1NC(=O)Nc1ccc(OC(F)(F)F)cc1)C(F)F` (racemic) [S35], the IC50 amounted to 197 nM.

For `Cc1ccc(NC(=O)Nc2ccc(OC(F)(F)F)cc2F)c(Oc2ccccc2C2(C(F)(F)F)CCO2)n1` (racemic) [S2, 1-(2-fluoro-4-(trifluoromethoxy)phenyl)-3-(6-methyl-2-(2-(2-(trifluoromethyl)oxetan-2-yl)phenoxy)pyridin-3-yl)urea], the IC50 was found to be 33 nM.

Regarding `O=C(Nc1ccc(OC(F)(F)F)cc1F)Nc1ccc(Cl)nc1Oc1ccccc1C1(C(F)(F)F)CCO1` (racemic) [S14, 1-(6-chloro-2-(2-(2-(trifluoromethyl)oxetan-2-yl)phenoxy)pyridin-3-yl)-3-(2-fluoro-4-(trifluoromethoxy)phenyl)urea], the IC50 was determined as 94 nM.

With `O=C(Nc1cc(OC(F)(F)F)ccc1F)Nc1cccnc1Oc1ccc(F)cc1C1(C(F)(F)F)CCO1` (racemic) [S40, 1-(2-(4-fluoro-2-(2-(trifluoromethyl)oxetan-2-yl)phenoxy)pyridin-3-yl)-3-(2-fluoro-5-(trifluoromethoxy)phenyl)urea], the IC50 was found to be 278 nM.

Consider `Cc1ccc(NC(=O)Nc2ccc(Cl)cc2F)c(Oc2ccccc2C2(C(F)(F)F)CCO2)n1` (racemic) [S4, 1-(4-chloro-2-fluorophenyl)-3-(6-methyl-2-(2-(2-(trifluoromethyl)oxetan-2-yl)phenoxy)pyridin-3-yl)urea], for which the IC50 came out at 43 nM.

The molecule `Cc1ccc(NC(=O)Nc2ccc(Cl)cc2)c(Oc2ccccc2C2(C(F)(F)F)CCO2)n1` (racemic) [S18, 1-(4-chlorophenyl)-3-(6-methyl-2-(2-(2-(trifluoromethyl)oxetan-2-yl)phenoxy)pyridin-3-yl)urea] showed an IC50 of 118 nM.

Consider `Cc1ccc(NC(=O)Nc2ccc(OC(F)(F)F)cc2)c(Oc2ccccc2C2(C(F)(F)F)CCO2)n1` (racemic) [S7, 1-(6-methyl-2-(2-(2-(trifluoromethyl)oxetan-2-yl)phenoxy)pyridin-3-yl)-3-(4-(trifluoromethoxy)phenyl)urea], for which the concentration for half-maximal inhibition (IC50) came out at 55 nM.

`Cc1cc2nc(Nc3cccnc3Oc3ccc(F)cc3C3(C(F)(F)F)CCO3)[nH]c2cc1C` (racemic) [S120] returned an IC50 of 1240 nM.

Molecule `O=C(Nc1ccc(CN2CC(F)(F)C2)cc1)Nc1cccnc1Oc1ccccc1C1(C(F)(F)F)CCO1` (racemic) [S62, 1-(4-((3,3-difluoroazetidin-1-yl)methyl)phenyl)-3-(2-(2-(2-(trifluoromethyl)oxetan-2-yl)phenoxy)pyridin-3-yl)urea] displayed an IC50 of 807 nM.

In turn, `Cc1ccc(NC(=O)Nc2nc3ccc(C)nc3s2)c(Oc2ccc(F)cc2C2(C(F)(F)F)CCO2)n1` (racemic) [S34, 1-(2-(4-fluoro-2-(2-(trifluoromethyl)oxetan-2-yl)phenoxy)-6-methylpyridin-3-yl)-3-(5-methylthiazolo[5,4-b]pyridin-2-yl)urea] came in with an IC50 of 196 nM.

`Cc1ncc(NC(=O)Nc2ccc(Cl)cc2F)c(Oc2ccccc2C2(C(F)(F)F)CCO2)n1` (racemic) [S58] showed an IC50 of 639 nM.

The molecule `Cc1ccc(NC(=O)Nc2ccc(C#N)cc2)c(Oc2ccc(F)cc2C2(C(F)(F)F)CCO2)n1` (racemic) [S66, 1-(4-cyanophenyl)-3-(2-(4-fluoro-2-(2-(trifluoromethyl)oxetan-2-yl)phenoxy)-6-methylpyridin-3-yl)urea] displayed an IC50 of 1020 nM.

The experiment is the same for the next values; noted with them: single enantiomer; 5nM MRS2365; values rounded to nearest whole number.
`CN1CC[C@]1(c1ccccc1Oc1ncccc1NC(=O)Nc1ccc(OC(F)(F)F)cc1F)C(F)(F)F` (single isomer, unassigned) [S102]: the IC50 worked out at 52 nM.

Molecule `O=C(Nc1ccc(OC(F)(F)F)cc1F)Nc1cccnc1Oc1ccccc1[C@@]1(C(F)(F)F)CCO1` [S112] came in with an IC50 of 38 nM.

The molecule `Cc1ccc(NC(=O)Nc2ccc(OC(F)(F)F)cc2F)c(Oc2ccccc2[C@@]2(C(F)(F)F)CCO2)n1` [S113] showed an IC50 of 34 nM.

`Cc1ccc(NC(=O)Nc2ccc(Cl)cc2F)c(Oc2ccccc2[C@]2(C(F)(F)F)CCO2)n1` (racemic) [S109] had a 50% inhibitory concentration (IC50) of 126 nM.

In general, IC50 refers to the concentration that inhibits the measured activity by half. A lower IC50 goes with inhibition by little substance.
